{"source": "patent US20020098247A1", "about": "“Methods and compositions for the improvement of insulin sensitivity, reduction of hyperglycemia, and reduction of hypercholesterolemia with chromium complexes and alpha lipoic acid” (priority 2000, published 2002)", "origin": "cited, not measured here", "key": {"[1]": {"tested_on": "isolated vasculature of diabetic rats"}, "[2]": {"tested_on": "Patients with Type II diabetes with symptomatic polyneuropathy", "conditions": "intravenous, three weeks"}, "[3]": {"tested_on": "patients with Type I and Type II diabetes"}, "[4]": {"tested_on": "patients with Type II diabetes", "conditions": "600 mg intravenously three weeks, then 6 months tid oral"}, "[5]": {"tested_on": "patients with Type II diabetes", "conditions": "600 mg tid orally, three weeks"}, "[6]": {"conditions": "rats, oral administration of CrCl3 with the NSAID"}}}
{"smiles": "O=C(O)CCCCC1CCSS1", "note": "(stereo not drawn) [alpha-lipoic acid]", "values": [{"measurement": "prevention of the deficit in acetylcholine-induced relaxation in isolated vasculature", "setting": "[1]", "value": 94, "unit": "%"}, {"measurement": "frequency of adverse effects", "setting": "[2]; 1,200 mg dose group vs other groups", "value": "slightly greater rate of gastrointestinal side effects"}, {"measurement": "decrease of Total Symptom Score (TSS) in the feet", "setting": "[2]; two higher doses (600, 1,200 mg per day)", "value": "approximately 60%"}, {"measurement": "sensory nerve and tibial nerve conduction velocities", "setting": "[3]; 600 or 1,200 mg per day, intravenous five days then oral two years", "value": "improvements"}, {"measurement": "Neuropathy Disability Score values", "setting": "[3]; 600 or 1,200 mg per day, two years", "value": "not significantly affected"}, {"measurement": "incidence or severity of side effects vs placebo", "setting": "[3]; two-year study", "value": "no significant differences"}, {"measurement": "neuropathy as evidenced by the TSS vs placebo", "setting": "[4]", "value": "significantly lessened"}, {"measurement": "side effects between groups", "setting": "[4]", "value": "no significant differences"}, {"measurement": "TSS in the feet and NDS scores", "setting": "[5]", "value": "improvements"}, {"measurement": "side effects vs placebo", "setting": "[5]", "value": "No significant differences"}]}
{"smiles": "CC(=O)Oc1ccccc1C(=O)O", "note": "[aspirin, acetylsalicylic acid]", "values": [{"measurement": "chromium absorption", "setting": "[6]", "value": "facilitated"}]}
